Tests used:
[1] = tested on: HepG2 CDXs; assay: HepG2 CDXs treatment; type: in vivo, Balb/c nude mice; conditions: 20 mg/kg and 40 mg/kg i.p. five times
Source text: (§1) Balb/c nude mice (female, 6-week-old) were subcutaneously injected with 2 × 10^6 HepG2 cells on the left and right flanks to construct cell-derived xenografts (CDXs). The patient-derived xenografts (PDXs) samples were gifts from Dr Changliang Shan of Nankai University. C57 BL/6N mice (female, 5-week-old) were subcutaneously injected with 2 × 10^6 Hepa1-6 cells mixed with matrigel (ABW, 0827265) on the left and right flanks. The mice were inoculated with hepatic carcinoma CDXs or PDXs for at least four days, and treated (i.p.) by vehicle and Tc3. […] Tumor volume = 4π/3 × (Length/2) × (Width/2)^2. All animal experiments were carried out in accordance with the recommendations of Requirements of the Ethical Review System of Biomedical Research Involving Human by National Health and Family Planning Commission of China and Nankai University Ethics Committee with written informed consent complying with the Declaration of Helsinki (IAEC ID: 2023-STDWLL-000249).

[2] = tested on: HepG2 cells; assay: RNA sequencing analysis; type: cell-based, human; conditions: HepG2, 4 μM, 24h, versus DMSO
Experimental: HepG2 cells were treated with dimethyl sulfoxide (DMSO) or Tc3 (4 μM) for 24h. And the total RNA was isolated using TRIzol (Solarbio, R1100). Next, the samples were processed and the RNA libraries were constructed by APTBIO company (Shanghai, China). Paired-end reads were aligned to a reference genome index which created using HISAT2, with read assignments to each gene quantified with feature counts. Gene expression was quantified using Transcripts Per Million (TPM). We identified Differentially Expressed Genes (DEGs) using the DESeq2 package in R, defining DEGs as those with an absolute log2 fold change greater than 1 and an adjusted p-value less than 0.05. We performed Gene Ontology (GO) and KEGG pathway enrichment analyses using the "cluster Profiler" package in R. GO terms and KEGG pathways with an adjusted P-value less than 0.05 were statistically significant. Our results were visualized using the ggplot2 and fact extra packages in R.

[3] = tested on: HepG2, SK-Hep1, and PLC-PRF5 cells; assay: Cell proliferation assays (growth curve, colony formation); type: cell-based, human; conditions: 0-4 μM
Experimental: For colony formation, hepatic carcinoma cells were seeded in 6-well plates and treated with Tc3 for almost 10 days, and the cell colonies were photographed for statistical analysis.

[4] = tested on: Balb/c mice; assay: Subchronic toxicity test; type: in vivo
Experimental: And the organ tissues of mice were collected for further H&E staining.
The formalin‐fixed and paraffin‐embedded tissues were cut into 5 μm sections. The sections were firstly soaked in xylene for removing paraffin and soaked in alcohol at decreasing concentration for tapping water. In the H&E staining assay, the sections were stained in Harris’s hematoxylin reagent and eosin reagent in turn. In the IHC staining, the sections were conducted antigen retrieval process and blocked with normal goat serum. Next, sections were incubated with the primary antibodies overnight and incubated with HRP-conjugated secondary antibodies. The tissue images were captured by a microscope.

[5] = tested on: shDFNA5 HepG2 cells; assay: Dose-response growth inhibition, GSDME knockdown cells; type: cell-based; conditions: Homo sapiens
Experimental: The cells were counted with hemocytometer.
Briefly, the pLKO.1 or shRNA plasmids with psPAX2 and PMD2.G were transfected into HEK-293T cells via DNA transfection reagent (SignaGen®Laboratories, SL100688). And the cell supernatant contained Lenti-virus was collected after 24 hours. The Lenti-virus of shRNAs were used to infect the hepatic carcinoma cells and the stable-transfection cell lines were screened by puromycin (1 μg/mL) (Solarbio, P8230).

[6] = tested on: Hepa1-6 CDXs; assay: Anti-PD-1 antibody synergistic effect in vivo; conditions: C57 BL/6N mice
Source text: as §1
The CDI value of tumor weight was calculated using formula mentioned before.

[7] = Pharmacokinetic study of vein administration; type: in vivo; conditions: Balb/c mice, intravenous 10 mg/kg
Experimental: Chromatographic conditions employed an ultimate AQ-C18 column (2.1 mm × 50 mm, 5.0 μm) and its temperature was set to 40℃. The mobile phase consisted of methanol and 0.1% formic acid, with a gradient elution program: 0-0.01 min, methanol 15%, 0.01-2 min, methanol 95%, 2-3 min, methanol 15%. The flow rate was set to 0.6 mL/min, the elution time was 3 min and ESI-MS in negative mode MRM was used for quantitative analysis. Masslynx 4.1 software was used for data acquisition and instrument control.
Stock solutions of Tc3 (1.0 mg/mL) and JBHDN (0.1 mg/mL) were prepared in methanol. A series of working solutions (5, 20, 100, 200, 800, 1000 and 2000 ng/mL) were added into blank mouse blood to prepare the standard curves. The JBHDN stock solution was diluted with 5% trichloroacetic acid-methanol to 100 ng/mL. In the same manner as the standard curve, quality control (QC) samples at 10 ng/mL, 450 ng/mL, and 1500 ng/mL were prepared. Next, Balb/c mice were administered intravenously (10 mg/kg). After 5 min, 15 min, 30 min, 1 h, 2 h, 4 h, 8 h, and 24 h, blood samples (20 μL) were collected from the tail vein of mice and mixed with internal standard JBHDN (100 ng/mL). The mixtures were then vortexed for 10 min at 4℃ and centrifuged at 5500 g for 10 min. The supernatant was mixed with 200 μL ultrapure water, and then injected into liquid chromatography-tandem mass spectrometry (LC-MS/MS) system for analysis.

[8] = tested on: hepatic carcinoma cells; assay: Cell migration assay (wound scratch, transwell); type: cell-based, human; conditions: HepG2 and SK-Hep1, 0-4 μM
Experimental: For transwell assay, the hepatic carcinoma cells were seeded in wells and put wells into 24-well plates pre-loaded DMEM medium supplemented with 20% FBS. The wells were added only DMEM medium with Tc3. The cells migrated through the membrane of wells in two days. Next, the wells were fixed by paraformaldehyde, stained by crystal violet and photographed for statistical analysis. For cell scratch assay, the hepatic carcinoma cells were seeded in 6-well plates and treated with Tc3. The scratch lines were obtained before the cell fusion reached almost 100%, and the cells were photographed at time gradient points for statistical analysis.

[9] = tested on: PRDX1; assay: Western blot of PRDX1; type: cell-based, human; conditions: hepatic carcinoma cells
Experimental: The whole-cell protein was extracted by RIPA lysis buffer contained with protease and phosphatase inhibitor cocktail (MCE, HY-K0010) from cells treated by indole analogues. Proteins were separated by sodium dodecyl sulfate-polyacrylamide gel electrophoresis (SDS-PAGE) gel, and then blotted onto polyvinylidene difluoride membrane (Millipore, IPVH00010). The membranes were incubated with the primary antibodies and the following horseradish peroxidase-conjugated (HRP) secondary antibodies. Next, membranes were washed and developed by ECL regent (Millipore, WBKLS0500).

CC(C)[C@H](N)C(=O)NCCCn1cc(/C=C2\S/C(=N\c3ccc(N4CCOCC4)cc3)N(Cc3ccc(F)cc3)C2=O)c2ccccc21 [Tc3]
growth rate and weight of HepG2 CDX tumors [1]: significantly smaller | Number of down-regulated gene [2]: 38 | Number of up-regulated gene [2]: 182 | number of DEGs [2]: 220 | tumor proliferation (growth curve, colony formation) [3]: significantly inhibited tumor proliferation | glomerular structure of the kidney (HE staining) ([4]; 60 mg/kg): slightly damaged | jejunum crypts and villi (HE staining) ([4]; 60 mg/kg): severely disrupted | weight and health state ([4]; 60 mg/kg i.p.): lower weight and worse health state | lung findings (HE staining) ([4]; i.p. every two days, day 14): alveolar wall thickening and increased numbers of lymphocytes | toxicity to the heart, liver, spleen and stomach (HE staining) ([4]; i.p. every two days, day 14): no significant toxicity | IC50 [5]: 4.77 µM | damage to liver, spleen, kidney and small intestine (pathology) ([6]; 10 mg/kg): did not cause significant damage | tumor growth of Hepa1-6 CDXs compared to control groups ([6]; i.p., Tc3 10 mg/kg, anti-PD-1 10 mg/kg): significantly inhibited tumor growth | plasma drug concentration ([7]; 5 min-24 h): 12.4 to 1417.0 ng/mL | AUC(0-t) ([7]; mouse, whole blood): 1520 ng·h/mL | half-life ([7]; mouse, whole blood, read-out: half-life elimination t1/2 (converted)): 8.08 h | cell migration rates (wound scratch, transwell) [8]: reduced cell migration rates | expression of PRDX1 [9]: obviously reduced
